{"source": "ChEMBL document CHEMBL1201862", "about": "“PubChem BioAssay data set” (2004)", "key": {"Large T antigen": {"biological_target": "Large T antigen (Simian virus 40, UniProt P03070)", "sequence (P03070 whole entry)": "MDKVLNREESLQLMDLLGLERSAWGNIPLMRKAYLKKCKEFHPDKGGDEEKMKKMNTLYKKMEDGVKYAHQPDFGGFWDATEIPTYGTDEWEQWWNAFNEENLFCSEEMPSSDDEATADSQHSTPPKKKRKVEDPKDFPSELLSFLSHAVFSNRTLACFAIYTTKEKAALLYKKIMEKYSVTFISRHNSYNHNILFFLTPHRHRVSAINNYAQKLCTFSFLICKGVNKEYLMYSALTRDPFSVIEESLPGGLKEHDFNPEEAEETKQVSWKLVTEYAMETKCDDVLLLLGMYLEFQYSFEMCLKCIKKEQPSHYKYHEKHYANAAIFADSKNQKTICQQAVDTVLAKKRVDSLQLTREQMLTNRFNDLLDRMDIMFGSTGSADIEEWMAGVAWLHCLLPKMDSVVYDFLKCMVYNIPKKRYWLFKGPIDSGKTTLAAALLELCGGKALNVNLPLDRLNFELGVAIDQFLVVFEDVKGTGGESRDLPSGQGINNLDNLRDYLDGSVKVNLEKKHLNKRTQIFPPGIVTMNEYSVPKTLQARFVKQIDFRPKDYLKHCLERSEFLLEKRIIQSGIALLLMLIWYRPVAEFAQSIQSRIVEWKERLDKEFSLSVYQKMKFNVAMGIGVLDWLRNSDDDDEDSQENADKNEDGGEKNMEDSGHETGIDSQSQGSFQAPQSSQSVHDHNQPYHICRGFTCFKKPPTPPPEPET", "format": "functional, Betapolyomavirus macacae"}, "Nonstructural protein 1": {"biological_target": "Nonstructural protein 1 (Influenza A virus, UniProt Q194T2)", "sequence (Q194T2 whole entry)": "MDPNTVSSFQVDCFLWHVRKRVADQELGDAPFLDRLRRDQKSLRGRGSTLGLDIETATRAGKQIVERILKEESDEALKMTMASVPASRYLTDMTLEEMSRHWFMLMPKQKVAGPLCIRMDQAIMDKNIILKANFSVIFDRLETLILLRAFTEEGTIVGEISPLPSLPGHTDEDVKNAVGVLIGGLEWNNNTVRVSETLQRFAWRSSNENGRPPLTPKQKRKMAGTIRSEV", "format": "functional, Influenza A virus (A/California/07/2009(H1N1))"}, "[1]": {"test": "growth suppression of PTEN-null colon cells, dose response, cell-based, HCT116 PTEN knockout (AID 1047);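 further: cells exposed to compound for 60 hours before readout; potency for loss of cell viability measured by luminescence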", "format": "functional"}, "Fatty acid synthase [2]": {"biological_target": "T1, Fatty acid synthase (Homo sapiens, UniProt P49327)", "T1 sequence (P49327 whole entry, the tested form may be a part)": "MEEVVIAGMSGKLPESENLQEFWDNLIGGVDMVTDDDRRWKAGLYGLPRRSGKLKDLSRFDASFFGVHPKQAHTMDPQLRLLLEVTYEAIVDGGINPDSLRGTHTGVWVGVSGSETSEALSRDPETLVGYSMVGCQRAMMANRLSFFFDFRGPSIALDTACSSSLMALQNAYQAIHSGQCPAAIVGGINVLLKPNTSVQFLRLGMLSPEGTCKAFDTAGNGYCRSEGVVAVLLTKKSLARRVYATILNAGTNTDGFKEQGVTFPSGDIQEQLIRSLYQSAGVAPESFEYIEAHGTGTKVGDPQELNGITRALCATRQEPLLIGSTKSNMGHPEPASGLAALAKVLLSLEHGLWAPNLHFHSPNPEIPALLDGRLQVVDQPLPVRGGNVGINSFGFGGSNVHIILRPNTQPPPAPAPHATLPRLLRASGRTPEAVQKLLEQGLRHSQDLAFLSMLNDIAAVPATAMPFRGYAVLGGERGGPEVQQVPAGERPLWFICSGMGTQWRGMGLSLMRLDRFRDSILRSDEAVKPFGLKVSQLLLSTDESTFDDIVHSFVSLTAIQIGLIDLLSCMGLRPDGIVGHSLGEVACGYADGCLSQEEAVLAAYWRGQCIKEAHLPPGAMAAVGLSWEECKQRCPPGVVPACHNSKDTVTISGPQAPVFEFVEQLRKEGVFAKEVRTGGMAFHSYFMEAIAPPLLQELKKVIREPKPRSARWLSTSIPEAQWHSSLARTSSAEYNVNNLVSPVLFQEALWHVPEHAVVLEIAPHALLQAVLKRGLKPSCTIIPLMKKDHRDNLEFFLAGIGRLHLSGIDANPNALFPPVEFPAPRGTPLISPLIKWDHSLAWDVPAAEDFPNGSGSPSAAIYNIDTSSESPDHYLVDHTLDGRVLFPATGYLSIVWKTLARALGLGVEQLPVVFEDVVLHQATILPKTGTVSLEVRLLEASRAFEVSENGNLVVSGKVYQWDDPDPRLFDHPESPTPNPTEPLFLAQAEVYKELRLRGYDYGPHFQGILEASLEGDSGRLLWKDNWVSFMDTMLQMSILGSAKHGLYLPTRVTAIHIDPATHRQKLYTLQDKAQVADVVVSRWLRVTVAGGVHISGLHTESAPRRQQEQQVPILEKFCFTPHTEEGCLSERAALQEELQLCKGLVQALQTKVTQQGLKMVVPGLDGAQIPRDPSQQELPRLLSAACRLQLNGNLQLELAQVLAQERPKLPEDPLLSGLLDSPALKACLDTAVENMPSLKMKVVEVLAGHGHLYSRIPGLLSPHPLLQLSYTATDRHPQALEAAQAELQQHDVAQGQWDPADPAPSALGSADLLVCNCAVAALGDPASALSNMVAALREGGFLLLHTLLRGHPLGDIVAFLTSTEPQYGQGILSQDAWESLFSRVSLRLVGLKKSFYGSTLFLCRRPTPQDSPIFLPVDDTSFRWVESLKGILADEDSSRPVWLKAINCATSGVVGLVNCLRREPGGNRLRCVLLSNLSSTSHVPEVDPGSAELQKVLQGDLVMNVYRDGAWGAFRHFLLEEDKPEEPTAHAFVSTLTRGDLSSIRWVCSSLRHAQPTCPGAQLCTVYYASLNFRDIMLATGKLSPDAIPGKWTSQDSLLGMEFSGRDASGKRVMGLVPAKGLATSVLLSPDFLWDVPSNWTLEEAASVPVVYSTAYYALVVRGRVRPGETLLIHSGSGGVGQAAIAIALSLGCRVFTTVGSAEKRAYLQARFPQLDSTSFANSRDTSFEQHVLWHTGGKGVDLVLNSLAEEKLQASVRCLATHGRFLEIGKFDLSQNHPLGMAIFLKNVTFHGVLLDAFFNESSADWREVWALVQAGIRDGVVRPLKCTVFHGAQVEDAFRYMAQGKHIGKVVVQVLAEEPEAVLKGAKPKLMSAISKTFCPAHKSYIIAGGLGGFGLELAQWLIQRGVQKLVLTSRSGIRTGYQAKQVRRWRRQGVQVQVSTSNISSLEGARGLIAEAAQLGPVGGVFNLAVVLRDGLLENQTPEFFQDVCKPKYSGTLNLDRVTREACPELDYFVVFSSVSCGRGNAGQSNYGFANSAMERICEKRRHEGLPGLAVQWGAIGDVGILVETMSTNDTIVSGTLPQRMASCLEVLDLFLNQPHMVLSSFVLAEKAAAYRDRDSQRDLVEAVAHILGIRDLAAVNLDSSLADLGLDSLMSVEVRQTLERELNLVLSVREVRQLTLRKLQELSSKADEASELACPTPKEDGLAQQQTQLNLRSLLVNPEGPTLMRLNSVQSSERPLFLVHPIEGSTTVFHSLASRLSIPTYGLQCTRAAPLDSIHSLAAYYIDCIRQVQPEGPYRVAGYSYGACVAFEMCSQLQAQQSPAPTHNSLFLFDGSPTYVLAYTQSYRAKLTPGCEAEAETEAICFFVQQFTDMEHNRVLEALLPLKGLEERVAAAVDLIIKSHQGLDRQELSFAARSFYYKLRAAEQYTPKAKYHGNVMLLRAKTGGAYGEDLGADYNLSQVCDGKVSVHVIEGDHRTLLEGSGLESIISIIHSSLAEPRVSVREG", "test": "FAS thioesterase domain inhibitors, dose response, biochemical, endpoint fluorescence intensity, uHTS hits (AID 624327);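 further: fluorescence from hydrolysis of an O-methyl fluorescein acyl ester substrate by the enzyme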", "format": "functional"}, "[3]": {"test": "growth suppression of beta-catenin-knockout colon cells, dose response, cell-based, HCT116, human colon tumor (AID 1045);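 further: cells exposed to compound for 60 hours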", "format": "functional"}, "Fatty acid synthase [4]": {"biological_target": "T1, Fatty acid synthase", "test": "FAS thioesterase domain inhibitors, dose response, biochemical, kinetic fluorescence intensity (AID 624326);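 further: rate of fluorescence rise from hydrolysis of a fluorogenic O-methyl fluorescein ester substrate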", "format": "functional"}, "HEK293": {"tested_on": "HEK293", "test": "inhibitors of LMP1-driven NF-kB reporter, dose response, cell-based, HEK293, luciferase, cherry-pick (AID 588343)", "format": "functional", "conditions": "Homo sapiens"}, "[5]": {"biological_target": "Peroxisome proliferator-activated receptor gamma/Nuclear receptor coactivator 2 (Homo sapiens, UniProt P37231)", "format": "functional"}, "[6]": {"biological_target": "Peroxisome proliferator-activated receptor gamma/Nuclear receptor coactivator 1 (Homo sapiens, UniProt P37231)", "format": "functional"}, "[7]": {"biological_target": "Peroxisome proliferator-activated receptor gamma/Nuclear receptor coactivator 3 (Homo sapiens, UniProt P37231)", "format": "functional"}, "INS1": {"tested_on": "INS1", "test": "beta cell apoptosis inhibitors, cytokine rescue, dose response, luminescence, retest (AID 449756);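 further: cell death triggered by IL-1 beta plus TNF-alpha plus IFN-gamma mixture; protective hits raise ATP signal compared with cytokine alone wells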", "format": "functional, cell-based", "conditions": "Rattus norvegicus"}, "[8]": {"test": "C. albicans growth with fluconazole, confirmation, fluorescence, retest (AID 2467)", "format": "functional, cell-based"}, "[9]": {"test": "NIH-3T3 fibroblast cytotoxicity, dose response, cytotoxicity control, cell-based, fluorescence, Alamar Blue, secondary assay (AID 2327);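 further: NIH-3T3 mouse fibroblasts cultured with fluconazole at 8 µg/mL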", "format": "functional"}, "[10]": {"biological_target": "T2, Microphthalmia-associated transcription factor (Homo sapiens, UniProt O75030)", "T2 sequence (O75030 whole entry)": "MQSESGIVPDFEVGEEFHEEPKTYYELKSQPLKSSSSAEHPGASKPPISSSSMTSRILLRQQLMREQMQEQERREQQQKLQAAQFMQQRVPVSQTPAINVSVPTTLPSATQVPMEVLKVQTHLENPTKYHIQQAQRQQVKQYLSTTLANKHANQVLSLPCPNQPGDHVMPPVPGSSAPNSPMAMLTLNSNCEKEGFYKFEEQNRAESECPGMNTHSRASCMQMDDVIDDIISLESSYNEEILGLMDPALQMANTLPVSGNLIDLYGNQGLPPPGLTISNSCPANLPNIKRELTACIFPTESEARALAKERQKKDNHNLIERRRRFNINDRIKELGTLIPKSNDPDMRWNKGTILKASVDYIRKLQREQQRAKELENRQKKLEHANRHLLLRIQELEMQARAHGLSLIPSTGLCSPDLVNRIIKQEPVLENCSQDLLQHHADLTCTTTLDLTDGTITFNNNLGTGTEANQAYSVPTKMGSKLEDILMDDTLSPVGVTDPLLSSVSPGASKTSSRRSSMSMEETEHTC", "test": "TRPM1 promoter luciferase signal decrease, dose response, MITF inhibitor project, cell-based, SK-MEL-5, cherry-picked, set 3 (AID 493073)", "format": "functional"}, "[11]": {"biological_target": "T3, Histone-lysine N-methyltransferase NSD2 (Homo sapiens, UniProt O96028)", "T3 sequence (O96028 whole entry)": "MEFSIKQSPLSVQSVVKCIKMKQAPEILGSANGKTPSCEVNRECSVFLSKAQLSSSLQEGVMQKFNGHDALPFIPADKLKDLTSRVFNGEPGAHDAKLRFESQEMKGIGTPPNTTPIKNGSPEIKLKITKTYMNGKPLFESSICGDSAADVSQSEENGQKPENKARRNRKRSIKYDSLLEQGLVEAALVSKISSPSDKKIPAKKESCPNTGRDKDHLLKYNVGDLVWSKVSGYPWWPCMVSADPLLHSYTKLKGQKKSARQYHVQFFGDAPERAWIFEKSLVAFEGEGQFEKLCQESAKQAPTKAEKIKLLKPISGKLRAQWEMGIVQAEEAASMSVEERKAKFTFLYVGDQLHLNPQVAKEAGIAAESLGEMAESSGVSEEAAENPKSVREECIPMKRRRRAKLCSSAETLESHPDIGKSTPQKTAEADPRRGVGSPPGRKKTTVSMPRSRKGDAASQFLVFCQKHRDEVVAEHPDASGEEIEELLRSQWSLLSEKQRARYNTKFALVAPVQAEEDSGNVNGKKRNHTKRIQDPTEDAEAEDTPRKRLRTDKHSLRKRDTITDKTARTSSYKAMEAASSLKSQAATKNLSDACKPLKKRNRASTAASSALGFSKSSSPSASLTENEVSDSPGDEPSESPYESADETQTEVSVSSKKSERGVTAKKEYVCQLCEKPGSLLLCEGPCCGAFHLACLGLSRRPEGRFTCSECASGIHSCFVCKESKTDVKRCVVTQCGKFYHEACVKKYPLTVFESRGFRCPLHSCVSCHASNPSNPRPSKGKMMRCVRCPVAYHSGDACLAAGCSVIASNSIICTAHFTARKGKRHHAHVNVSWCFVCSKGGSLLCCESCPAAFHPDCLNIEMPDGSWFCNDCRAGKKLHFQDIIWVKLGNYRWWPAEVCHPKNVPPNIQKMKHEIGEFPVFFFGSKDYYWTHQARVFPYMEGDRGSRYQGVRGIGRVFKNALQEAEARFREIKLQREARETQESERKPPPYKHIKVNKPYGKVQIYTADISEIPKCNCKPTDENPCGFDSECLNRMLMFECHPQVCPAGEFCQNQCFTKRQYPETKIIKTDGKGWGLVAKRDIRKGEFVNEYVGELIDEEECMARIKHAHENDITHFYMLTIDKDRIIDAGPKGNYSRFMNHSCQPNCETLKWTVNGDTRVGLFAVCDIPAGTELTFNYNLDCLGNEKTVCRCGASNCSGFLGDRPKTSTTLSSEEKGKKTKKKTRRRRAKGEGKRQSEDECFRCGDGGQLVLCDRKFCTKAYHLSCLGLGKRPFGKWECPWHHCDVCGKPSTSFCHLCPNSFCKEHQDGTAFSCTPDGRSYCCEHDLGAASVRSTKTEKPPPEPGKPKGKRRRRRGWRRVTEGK", "format": "biochemical"}, "[12]": {"biological_target": "T4, Heat shock factor protein 1 (Mus musculus, UniProt P38532)", "T4 sequence (P38532 whole entry)": "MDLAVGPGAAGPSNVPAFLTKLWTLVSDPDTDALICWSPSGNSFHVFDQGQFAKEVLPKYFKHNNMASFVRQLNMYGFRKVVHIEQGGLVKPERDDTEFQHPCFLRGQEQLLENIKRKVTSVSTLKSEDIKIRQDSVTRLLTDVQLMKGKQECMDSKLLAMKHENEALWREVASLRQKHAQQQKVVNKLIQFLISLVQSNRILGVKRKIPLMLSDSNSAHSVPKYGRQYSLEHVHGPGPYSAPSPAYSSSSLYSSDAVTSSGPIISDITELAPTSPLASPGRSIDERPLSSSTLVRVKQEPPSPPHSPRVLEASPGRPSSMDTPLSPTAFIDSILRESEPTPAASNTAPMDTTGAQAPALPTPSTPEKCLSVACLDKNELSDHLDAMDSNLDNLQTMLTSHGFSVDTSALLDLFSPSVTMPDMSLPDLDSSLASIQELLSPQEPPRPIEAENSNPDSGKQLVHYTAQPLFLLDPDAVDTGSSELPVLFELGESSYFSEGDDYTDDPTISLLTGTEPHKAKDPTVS", "test": "HSF1 potentiators in luciferase reporter cells, confirmation, cell-based, NIH3T3, luminescence, dose retest (AID 435004);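 further: stress induced by proteasome inhibitor MG132 added 30 min after compound; actives raise luminescence as potentiators of the MG132 stress response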", "format": "functional"}, "[13]": {"test": "Shn3 3'UTR reporter inhibitors, dose response, cell-based, Clone20 osteoblasts, firefly luciferase, cherry-picked (AID 624132)", "format": "functional"}, "[14]": {"biological_target": "T5, Polyadenylate-binding protein 1 (Homo sapiens, UniProt P11940)", "T5 sequence (P11940 whole entry)": "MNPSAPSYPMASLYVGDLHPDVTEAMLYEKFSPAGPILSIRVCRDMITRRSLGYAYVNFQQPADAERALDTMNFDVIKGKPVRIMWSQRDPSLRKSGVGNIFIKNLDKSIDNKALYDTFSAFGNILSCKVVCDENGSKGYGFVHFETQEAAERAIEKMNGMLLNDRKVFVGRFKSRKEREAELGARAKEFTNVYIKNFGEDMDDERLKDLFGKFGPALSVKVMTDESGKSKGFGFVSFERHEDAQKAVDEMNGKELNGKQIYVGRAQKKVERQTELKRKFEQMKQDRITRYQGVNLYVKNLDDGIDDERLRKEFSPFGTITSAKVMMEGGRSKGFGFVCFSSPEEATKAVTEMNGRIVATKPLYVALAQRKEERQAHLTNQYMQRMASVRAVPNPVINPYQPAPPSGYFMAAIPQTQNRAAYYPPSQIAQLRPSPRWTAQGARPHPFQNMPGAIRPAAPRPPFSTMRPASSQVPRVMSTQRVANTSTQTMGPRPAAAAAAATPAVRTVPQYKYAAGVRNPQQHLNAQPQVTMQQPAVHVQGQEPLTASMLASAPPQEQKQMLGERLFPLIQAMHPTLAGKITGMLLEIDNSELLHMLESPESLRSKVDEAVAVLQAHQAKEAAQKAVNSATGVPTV", "test": "PABP1 MLLE–PAM2 interaction inhibitors, dose response, miRNA deadenylation inhibitor project, biochemical, fluorescence polarization, Cy5-PAM2 peptide, secondary (AID 602260)", "format": "functional", "conditions": "read-out: IC50_Mean"}, "[15]": {"test": "HepG2 cell cytotoxicity, dose response, cytotoxicity control for Shn3 inhibitor project, CellTiter-Glo, cherry-picked (AID 624134)", "format": "functional, cell-based"}, "[16]": {"biological_target": "T5, Polyadenylate-binding protein 1", "test": "PABP1 MLLE–PAM2 binding inhibitor potency, dose response, biochemical, fluorescence polarization, FITC-PAM2 peptide (AID 602259)", "format": "functional", "conditions": "read-out: IC50_Mean"}, "[17]": {"test": "control 3'UTR Renilla luciferase suppression, dose response, counter-screen for Shn3 inhibitor project, cell-based, Clone20-Shn3RL, cherry-picked (AID 624133)", "format": "functional"}}, "note": "Calls of active or inactive are those of the source.", "data": [{"smiles": "Cc1nnc(NN/C=C2\\C(=O)N(c3cccc(C(F)(F)F)c3)C(=O)c3ccccc32)nc1O", "values": [{"measurement": "IC50", "setting": "Large T antigen", "result": "15.2 µM (active)"}]}, {"smiles": "COc1ccc(Nc2ccc([N+](=O)[O-])c3nonc23)c(OC)c1", "values": [{"measurement": "IC50", "setting": "Nonstructural protein 1", "result": "> 100 µM (active)"}]}, {"smiles": "Cc1ccc([N+](=O)[O-])cc1NC(=O)CN(C(=O)c1ccc(Cl)cc1)C1CCCCC1", "values": [{"measurement": "EC50", "setting": "[1]", "result": "43.7 µM (active)"}, {"measurement": "IC50", "setting": "Fatty acid synthase [2]", "result": "1.18 µM (active)"}, {"measurement": "EC50", "setting": "[3]", "result": "209 µM (active)"}, {"measurement": "IC50", "setting": "Fatty acid synthase [4]", "result": "1.24 µM (active)"}]}, {"smiles": "O=C(NCCOc1ccccc1)c1ccc2c(c1)OCO2", "values": [{"measurement": "AC50", "setting": "HEK293", "result": "1.62 µM (active)"}]}, {"smiles": "CC[C@]1(c2cccc(C)c2)C(=O)N(C(=O)OC)N1C(=O)OC", "values": [{"measurement": "IC50", "setting": "Fatty acid synthase [2]", "result": "9.04 µM (active)"}, {"measurement": "IC50", "setting": "Fatty acid synthase [4]", "result": "8.6 µM (active)"}]}, {"smiles": "CC(C)(C)SCCNC(=O)/C=C/c1cccc([N+](=O)[O-])c1", "values": [{"measurement": "IC50", "setting": "Fatty acid synthase [2]", "result": "4.09 µM (active)"}, {"measurement": "IC50", "setting": "Fatty acid synthase [4]", "result": "6.29 µM (active)"}]}, {"smiles": "CCN(CC)S(=O)(=O)c1cccc(NC(=O)COC(=O)c2nnc(O)c3ccccc23)c1", "values": [{"measurement": "EC50", "setting": "[5]", "result": "> 79.4 µM (not active)"}, {"measurement": "EC50", "setting": "[6]", "result": "> 79.4 µM (not active)"}, {"measurement": "EC50", "setting": "[7]", "result": "> 79.4 µM (not active)"}]}, {"smiles": "CC(=O)Nc1ccc(NC(=O)c2ccccc2S(=O)(=O)c2ccc([N+](=O)[O-])cc2)cc1", "values": [{"measurement": "IC50", "setting": "Fatty acid synthase [2]", "result": "13.8 µM (active)"}, {"measurement": "IC50", "setting": "Fatty acid synthase [4]", "result": "15.9 µM (active)"}]}, {"smiles": "COc1cc(C(=O)Oc2c(CN3CCOCC3)cc(Cl)c3cccnc23)cc(OC)c1OC", "values": [{"measurement": "AC50", "setting": "INS1", "result": "4.28 µM (active)"}, {"measurement": "EC50", "setting": "[8]", "result": "4.15 µM (active)"}, {"measurement": "EC50", "setting": "[1]", "result": "2.71 µM (active)"}, {"measurement": "IC50", "setting": "Nonstructural protein 1", "result": "19.9 µM (active)"}, {"measurement": "EC50", "setting": "[9]", "result": "> 160 µM (inactive)"}, {"measurement": "EC50", "setting": "[3]", "result": "2.31 µM (active)"}, {"measurement": "AC50", "setting": "[10]", "result": "7.55 µM (active)"}]}, {"smiles": "O=C(NCCCCc1ccccc1)C1CC(c2cccc([N+](=O)[O-])c2)=NO1", "note": "(stereo unspecified)", "values": [{"measurement": "IC50", "setting": "Fatty acid synthase [2]", "result": "3.11 µM (active)"}, {"measurement": "IC50", "setting": "Fatty acid synthase [4]", "result": "4.27 µM (active)"}]}, {"smiles": "CSc1ccccc1C(=O)N1CCC2(CC1)CC(=O)c1ccccc1O2", "values": [{"measurement": "AC50", "setting": "HEK293", "result": "22.5 µM (active)"}]}, {"smiles": "CCN1CC2CCCC3(C1)C(=O)NC1(CCCCC1)N=C23", "note": "(stereo unspecified)", "values": [{"measurement": "AC50", "setting": "[11]", "result": "15 µM (active)"}]}, {"smiles": "Cc1cc(Sc2ncnc(N)c2[N+](=O)[O-])ncn1", "values": [{"measurement": "EC50", "setting": "[12]", "result": "12.2 µM (active)"}, {"measurement": "EC50", "setting": "[8]", "result": "0.58 µM (active)"}, {"measurement": "AC50", "setting": "[13]", "result": "5.7 µM (active)"}, {"measurement": "IC50", "setting": "[14]", "result": "> 66 µM (inactive)"}, {"measurement": "AC50", "setting": "[15]", "result": "30.1 µM (active)"}, {"measurement": "IC50", "setting": "[16]", "result": "> 66 µM (inactive)"}, {"measurement": "AC50", "setting": "[17]", "result": "7.76 µM (active)"}, {"measurement": "EC50", "setting": "[9]", "result": "2.67 µM (inconclusive)"}, {"measurement": "AC50", "setting": "[10]", "result": "7.61 µM (active)"}]}]}
